Consider 10 compounds from patent US20240299557A1, “COMPOUND FOR DEGRADING DEOXYRIBONUCLEIC ACID (DNA) POLYMERASE, AND USE THEREOF” (TAIBIDI PHARMACEUTICAL TECHNOLOGY (SHIJIAZHUANG) CO., LTD., priority 2021, published 2024).

Where a SMILES comes first, the peptide text is derived from it. The star is where a group is joined. Cbz = O=C(OCc1ccccc1)*

The subject of experiment [1] is HBV. Put plainly: Inhibition of HBV virus replication in HepAD38 cells (HBV DNA level in supernatant). Type of experiment: cell-based, hepatitis B virus. The conditions noted are these: for inhibition at 0.01 µM / inhibition at 0.1 µM / inhibition at 1 µM / inhibition at 10 µM: Hepatitis B virus, HepAD38 cell line, read-out: Antiviral activity of the compound at different concentrations; for inhibition at 1 µM: 1000 nM; for inhibition at 10 µM: 10000 nM; for inhibition of virus replication: all tested dose levels 10 nM, P≤0.001; for inhibitory effect on virus replication: after 7 days, TPD00203 each dose group (3.75 nM, 100 nM, 5 μM, 100 μM), ETV 3.75 nM. On the procedure: In vitro cell model 2: Stable toxigenic HepAD38 cells.
(§1) Positive drug control: entecavir (ETV).
(§2) Experimental procedure: HepG2.2.15 cells and stable toxigenic HepAD38 cells were divided into six experimental groups. The number of cells in each well was 7×10^4, and the amount of medium in each well was 500 μl. The first group was a blank control, the second group was a positive control, and 3.75 nM ETV was added; the third to sixth groups were added with 3.75 nM, 100 nM, 5 μM and 100 μM compound (I, TPD00203). The supernatant was collected on the 3rd day after administration and the HBV DNA level in the supernatant was detected. On the seventh day, the supernatant was collected again and the cells were pelleted, and the level of HBV DNA in the supernatant was detected.
After the preliminary evaluation of the virus-inhibiting effect of TPD00203, the inhibitory effects of the same dose of TPD00203 and ETV were determined in HepAD38 cell line. ETV and TPD00203 were 4 dose groups of 10 nM, 100 nM, 1 μM, and 10 μM.
The inhibitory activity of compounds (I-X) on the virus in HepAD38 cell line was determined by the same method as in Example 6, and the results were shown in the following table.

Experiment [2] concerns the target T1, HBV P protein (DNA polymerase) (Hepatitis B virus genotype D subtype ayw, UniProt P03156).
T1 construct: expressed in transfected cells; host or cells: Huh7-LgBiT cells transduced with pLVX-HBP-Puro lentivirus (Huh7-HBP)
In words: Degradation of HBV P protein (DNA polymerase) in Huh7-HBP cell line (Nano-Glo HiBiT/LgBiT luminescence). The note with it: read-out: Degradation activity of DNA polymerase at different concentrations of compounds; for inhibition at 0.1 µM: 100 nM; for inhibition at 0.3 µM: 300 nM; for inhibition at 1 µM: 1000 nM; for inhibition at 3 µM: 3000 nM; for inhibition at 10 µM: 10000 nM. It is filed as cell-based. On the procedure:
The transfected huh-7-HBP cell line was digested and suspended, 100 μl of cell suspension was added to each well of a 96-well plate at a concentration of 2×10^5/ml, and incubated overnight. 10 μl of drug was added to each well according to the pre-set dose, and each dose of each drug should be at least two replicate wells. After shaking gently, the cell suspension was put back into the incubator, and incubated for 1-24 h according to the specific situation. Nano-Glo@ LCS Dilution Buffer and Nano-Glo@ Live Cell Substrate two reagents in the Nano-Glo@Live Cell Assay System kit were mixed at a ratio of 20:1, and added to the cell plate to be tested at a ratio of 25 ul per 100 ul system. After shaking for 30 seconds, full wavelength luminosity was measured using BMG Labtech FLUOstar Omega ELIASA. The higher the luminescence value, the higher the HBP content of the target protein.
According to method 1, the degradation effect of target compounds I-X on HBV P protein at 5 different concentrations was determined.

For experiment [3], the target named is T2, HBV P protein (Hepatitis B virus genotype D subtype ayw, UniProt P03156).
T2 construct: flag; expressed in transfected cells; host or cells: Huh7
In words: Degradation of flag-tagged HBV P protein in transfected Huh7 cells (Western Blot). It is filed as cell-based. On the procedure: In vitro cell model: Huh7.
Proteasome inhibitor: MG132
The Huh7 cells cultured in the medium containing 10 μM TPD00203 drug were used to transfect the flag-tagged P protein overexpression plasmid, and the medium containing 10 μM TPD00203 drug was changed 6 hours after transfection, and MG132 (final concentration 10 μM) was added 24 hours after transfection to inhibit the degradation of P protein, and cells were harvested after MG132 treatment for 12 hours. MG132 is a reversible proteasome inhibitor. After MG132 was removed, the cells were cultured in a medium containing 10 μM TPD00203 for 12 hours, and the cells were harvested. The expression of P protein was detected by Western Blot experiment. DMSO was used as a control.
(A western blot detects proteins with antibodies after separation by electrophoresis.)

In experiment [4] the test system is HBV. Put plainly: Inhibition of HBV virus replication in HepG2.2.15 cells (HBV DNA level in supernatant). It is filed as cell-based, hepatitis B virus. The conditions noted are these: after 7 days of administration, P≤0.001 vs blank group. On the procedure:
In vitro cell model 1: HepG2 cells transfected with hepatitis B virus (HBV), namely HepG2 2.2.15 cells.
as §1, §2

The mark [5] stands for this setting: HepAD38 cells, 7 days, 100 nM, 1 μM, 10 μM.

T1 sequence (P03156 whole entry): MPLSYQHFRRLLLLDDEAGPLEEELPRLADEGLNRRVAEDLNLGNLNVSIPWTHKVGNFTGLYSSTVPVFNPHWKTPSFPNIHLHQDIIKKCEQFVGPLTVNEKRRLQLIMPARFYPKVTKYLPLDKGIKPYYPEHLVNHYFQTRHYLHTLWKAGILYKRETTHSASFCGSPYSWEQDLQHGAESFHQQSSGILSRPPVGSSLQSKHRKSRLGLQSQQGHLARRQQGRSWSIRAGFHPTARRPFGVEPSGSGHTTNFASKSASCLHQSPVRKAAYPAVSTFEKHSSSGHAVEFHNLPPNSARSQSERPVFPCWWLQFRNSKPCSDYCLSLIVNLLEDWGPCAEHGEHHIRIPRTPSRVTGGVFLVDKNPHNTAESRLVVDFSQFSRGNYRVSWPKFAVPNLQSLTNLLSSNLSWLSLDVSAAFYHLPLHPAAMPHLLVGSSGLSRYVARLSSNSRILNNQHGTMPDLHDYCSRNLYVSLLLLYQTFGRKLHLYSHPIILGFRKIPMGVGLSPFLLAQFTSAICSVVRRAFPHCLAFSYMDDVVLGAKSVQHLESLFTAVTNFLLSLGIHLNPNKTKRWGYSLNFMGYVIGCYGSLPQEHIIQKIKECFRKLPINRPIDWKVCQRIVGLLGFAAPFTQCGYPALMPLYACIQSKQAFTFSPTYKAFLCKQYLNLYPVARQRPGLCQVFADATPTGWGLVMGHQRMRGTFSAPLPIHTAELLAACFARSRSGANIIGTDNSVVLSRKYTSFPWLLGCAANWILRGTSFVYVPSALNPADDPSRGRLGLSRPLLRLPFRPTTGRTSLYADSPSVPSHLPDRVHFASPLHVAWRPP
T2 sequence (P03156 whole entry): as above

As to `C=C1[C@H](CO)[C@H](O)C[C@@H]1n1cnc2c(OCCN3CCN(CCCC(=O)N[C@H](C(=O)N4C[C@H](O)C[C@H]4C(=O)NCc4ccc(-c5scnc5C)cc4)C(C)(C)C)CC3)nc(N)nc21` [II], the inhibition at 0.01 µM in experiment [1] (10 nM) is 10 to 30%. Also, the inhibition at 0.1 µM in experiment [1] (100 nM) is 10 to 30%. In addition, in experiment [1], the inhibition at 1 µM lay within 30 to 60% and the inhibition at 10 µM was > 60%. For the same compound, in experiment [2], the inhibition at 0.1 µM is < 30%, the inhibition at 0.3 µM was < 30%, the inhibition at 1 µM was < 30% and the inhibition at 3 µM was 30 to 70%. Further, the inhibition at 10 µM in experiment [2] is 30 to 70%.
`CC(C)C[C@@H](C=O)NC(=O)[C@H](CC(C)C)NC(=O)[C@H](CC(C)C)NC(=O)OCc1ccccc1` [MG132, reference compound] (Cbz-Leu-Leu-Leu-aldehyde): in experiment [3] (Huh7 cells, MG132 final concentration 10 μM added 24 hours after transfection, with 10 μM TPD00203), the “effect of proteasome inhibitor on drug-induced P protein degradation” value is on record as “inhibited drug degradation”.
Consider `C=C1[C@H](CNC(=O)CN2CCN(CCCC(=O)N[C@H](C(=O)N3C[C@H](O)C[C@H]3C(=O)NCc3ccc(-c4scnc4C)cc3)C(C)(C)C)CC2)[C@H](O)C[C@@H]1n1cnc2c(=O)[nH]c(N)nc21` [Compound VII], for which the inhibition at 0.01 µM in experiment [1] (10 nM) is 10 to 30%. Moreover, the inhibition at 0.1 µM in experiment [1] (100 nM) was in the range of 10 to 30%. In experiment [1], the inhibition at 1 µM was in the range of 30 to 60% and the inhibition at 10 µM is 30 to 60%. Also, in experiment [2], the inhibition at 0.1 µM is < 30%, the inhibition at 0.3 µM was < 30%, the inhibition at 1 µM was < 30% and the inhibition at 3 µM fell in the range of 30 to 70%. In addition, the inhibition at 10 µM in experiment [2] was in the range of 30 to 70%.
As to `C=C1[C@H](CNC(=O)CCCCCCCCC(=O)N[C@H](C(=O)N2C[C@H](O)C[C@H]2C(=O)NCc2ccc(-c3scnc3C)cc2)C(C)(C)C)[C@H](O)C[C@@H]1n1cnc2c(=O)[nH]c(N)nc21` [Compound VI, N1-(((1R,3S)-3-(2-amino-6-oxo-1,6-dihydro-9H-purin-9-yl)-5-hydroxy-2-methylenecyclopentyl)methyl)-N10-((S)-1-((2S,4R)-4-hydroxy-2-((4-(4-methylthiazol-5-yl)benzyl)carbamoyl)pyrrolidin-1-yl)-3,3-dimethyl-1-oxobutan-2-yl) decanoic acid diamide], the inhibition at 0.01 µM in experiment [1] (10 nM) lay in the range of 10 to 30%. Further, the inhibition at 0.1 µM in experiment [1] (100 nM) was 30 to 60%. Besides, in experiment [1], the inhibition at 1 µM is > 60% and the inhibition at 10 µM was > 60%. Further, in experiment [2], the inhibition at 0.1 µM was < 30%, the inhibition at 0.3 µM lay within 30 to 70%, the inhibition at 1 µM lay within 30 to 70% and the inhibition at 3 µM is > 70%. Moreover, the inhibition at 10 µM in experiment [2] is > 70%.
Consider `C=C1[C@H](CO)[C@H](O)C[C@@H]1n1cnc2c(OCCOCCOCCCC(=O)N[C@H](C(=O)N3C[C@H](O)C[C@H]3C(=O)NCc3ccc(-c4scnc4C)cc3)C(C)(C)C)nc(N)nc21` [Compound V], for which the inhibition at 0.01 µM in experiment [1] (10 nM) was in the range of 10 to 30%. For the same compound, the inhibition at 0.1 µM in experiment [1] (100 nM) was in the range of 30 to 60%. Besides, in experiment [1], the inhibition at 1 µM lay within 30 to 60% and the inhibition at 10 µM lay within 30 to 60%. Moreover, in experiment [2], the inhibition at 0.1 µM is < 30%, the inhibition at 0.3 µM was 30 to 70%, the inhibition at 1 µM fell in the range of 30 to 70% and the inhibition at 3 µM was 30 to 70%. Moreover, in experiment [2], the inhibition at 10 µM was in the range of 30 to 70%.
For the compound `C=C1[C@H](CNC(=O)CN2CCC(OCCC(=O)N[C@H](C(=O)N3C[C@H](O)C[C@H]3C(=O)NCc3ccc(-c4scnc4C)cc3)C(C)(C)C)CC2)[C@H](O)C[C@@H]1n1cnc2c(=O)[nH]c(N)nc21` [IX], the inhibition at 0.01 µM in experiment [1] (10 nM) was 30 to 60%. In addition, the inhibition at 0.1 µM in experiment [1] (100 nM) was 30 to 60%. For the same compound, in experiment [1], the inhibition at 1 µM is > 60% and the inhibition at 10 µM was > 60%.
As to `C=C1[C@H](CO)[C@H](O)C[C@@H]1n1cnc2c(OCCN3CCC(CCCC(=O)N[C@H](C(=O)N4C[C@H](O)C[C@H]4C(=O)NCc4ccc(-c5scnc5C)cc4)C(C)(C)C)CC3)nc(N)nc21` [III], the inhibition at 0.01 µM in experiment [1] (10 nM) is > 60%. Further, the inhibition at 0.1 µM in experiment [1] (100 nM) is > 60%. Moreover, in experiment [1], the inhibition at 1 µM is > 60% and the inhibition at 10 µM is > 60%. Also, in experiment [2], the inhibition at 0.1 µM is < 30%, the inhibition at 0.3 µM was < 30%, the inhibition at 1 µM was 30 to 70% and the inhibition at 3 µM was in the range of 30 to 70%. For the same compound, the inhibition at 10 µM in experiment [2] is > 70%.
Take `C=C1[C@H](CO)[C@@H](O)C[C@@H]1n1cnc2c(=O)[nH]c(N)nc21` [entecavir, reference compound]: the “inhibition of virus replication” value in experiment [1] (setting [5]) is given as “significantly inhibit virus replication”. For the same compound, the “inhibitory effect on virus replication” value in experiment [1] (HepAD38 cells) and in experiment [4] (3.75 nM) was “significant inhibitory effect on virus replication” in each case.
Take `C=C1[C@H](CO)[C@H](O)C[C@@H]1n1cnc2c(OCCCCCCCCCC(=O)N[C@H](C(=O)N3C[C@H](O)C[C@H]3C(=O)NCc3ccc(-c4scnc4C)cc3)C(C)(C)C)nc(N)nc21` [Compound I]: the “virus-inhibiting effect compared with ETV at the same dose” value in experiment [1] (HepAD38 cells, 7 days, 10 nM, 100 nM, 1 μM, 10 μM) is recorded as “better virus-inhibiting effect than ETV”. Moreover, the “inhibition of virus replication” value in experiment [1] (setting [5]) is given as “significantly inhibit virus replication”. The “inhibitory effect on virus replication” value in experiment [1] (HepAD38 cells) is recorded as “significant inhibitory effect on virus replication”; in experiment [4] (3.75 nM), “significant inhibition of viral replication”; in experiment [4] (5 μM), “significant inhibition of viral replication”; in experiment [4] (100 μM), “significant inhibition of viral replication”. In addition, the inhibition at 0.01 µM in experiment [1] (10 nM) is > 60%. Besides, the figures for the inhibition at 0.1 µM in experiment [1] (100 nM) and in experiment [2] were > 60% and < 30%, respectively. For the same compound, the inhibition at 1 µM is > 60% in experiment [1] and 30 to 70% in experiment [2]. In addition, the inhibition at 10 µM in experiment [1] was > 60%; in experiment [2], > 70%. The inhibition at 0.3 µM in experiment [2] was 30 to 70%. The inhibition at 3 µM in experiment [2] was > 70%. The “P protein degradation (Western Blot)” value in experiment [3] (Huh7 cells transfected with flag-Polymerase plasmid, 10 μM TPD00203, 36 hours after transfection) is listed as “promote P protein degradation”.
With `C=C1[C@H](CNC(=O)CN2CCC(CCCC(=O)N[C@H](C(=O)N3C[C@H](O)C[C@H]3C(=O)NCc3ccc(-c4scnc4C)cc3)C(C)(C)C)CC2)[C@H](O)C[C@@H]1n1cnc2c(=O)[nH]c(N)nc21` [VIII], the inhibition at 0.01 µM in experiment [1] (10 nM) lay in the range of 30 to 60%. Moreover, the inhibition at 0.1 µM in experiment [1] (100 nM) lay in the range of 30 to 60%. For the same compound, in experiment [1], the inhibition at 1 µM lay within 30 to 60% and the inhibition at 10 µM was > 60%. For the same compound, in experiment [2], the inhibition at 0.1 µM is < 30%, the inhibition at 0.3 µM was < 30%, the inhibition at 1 µM fell in the range of 30 to 70% and the inhibition at 3 µM lay in the range of 30 to 70%. The inhibition at 10 µM in experiment [2] is > 70%.
